The text below walks through data of US20220153732A1, “PROTEIN SECRETION INHIBITORS” (KEZAR LIFE SCIENCES, priority 2019, published 2022).

Common to all, as to assay type: cell-based
The test system of experiment [1] is PD1-ss+10aa/Gaussia Luciferase. The experiment can be described thus: Dox-Induced PD1-ss-Gluc Assay. The settings on record: 293FRT/TO cells, read-out: 24 hr Dox Inducible PD1ssGluc 293FRT/TO: Mean IC50. The method in brief: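 Stable cell line carrying PD1-ss+10aa/Gaussia luciferase cDNA under T-REx (doxycycline-inducible) control, plated the day before assay. Compound dilutions in DMSO/media containing doxycycline added and incubated at 37° C, 5% CO2. Undefined stereocentres: data refer to stereoisomer mixtures.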

Experiment [2] relates to TNFα-FL/Gaussia Luciferase. The experiment can be described thus: Dox Induced TNFα-FL-Gluc Assay. Conditions: 293FRT/TO cells, read-out: 24 hr Dox Inducible TNFaFLGluc 293FRT/TO: Mean IC50. The method in brief:
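A stable T-REx cell line carrying doxycycline-inducible TNFα-FL/Gaussia luciferase was plated the day before assay. Compound dilutions in DMSO/media containing doxycycline were then added and incubated at 37° C, 5% CO2.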

The subject of experiment [3] is HER3-ss+4aa/Gaussia Luciferase. The experiment can be described thus: Dox-Induced Her3-ss-Gluc Assay. Conditions: 293FRT/TO cells, read-out: 24 hr Dox Inducible Her3(ss + 4)Gluc 293FRT/TO: Mean IC50. The method in brief:
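Stable T-REx cell line carrying a doxycycline-regulated HER3-ss+4aa/Gaussia luciferase insert, plated the day before assay. Compound dilutions in DMSO/media with doxycycline added, then incubated at 37° C., 5% CO2. Stereoisomer mixtures tested where stereochemistry is not drawn.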

Experiment [4] relates to IL-2-FL/Gaussia Luciferase. The experiment can be described thus: Dox Induced IL2-FL-Gluc Assay. The settings on record: 293FRT/TO cells, read-out: 24 hr Dox Inducible IL2FLGIuc 293FRT/TO: Mean IC50. The method in brief: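 Stable T-REx cell line expressing doxycycline-inducible IL-2-FL/Gaussia luciferase cDNA, plated the day before assay. Compound dilutions in DMSO/media containing doxycycline added and incubated at 37° C., 5% CO2. Unspecified stereochemistry means data refer to a stereoisomer mixture.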

Experiment [5] deals with human multiple myeloma cell line NCI-H929. The experiment can be described thus: H929 Cell Viability Assay. Conditions: 48 hr, NCI-H929 cells, Celltiter-Glo, read-out: 48 hr H929 Viability Celltiter-Glo: Mean EC50. On the procedure: Plates were incubated at 37° C., 5% CO2 for 48 hours. After 48 hours, Celltiter-Glo® (Promega) was added to each well and luciferase signal was quantified using Tecan Infinite M1000 Pro for cell viability determination.
For chemical structures that include one or more stereoisomers, but are illustrated without indicating stereochemistry, the assay data refers to a mixture of stereoisomers.
For orientation: In ATP-based viability assays light output follows the ATP content of the culture.

For experiment [6], the system named is human multiple myeloma cell line U266B1. The experiment can be described thus: U266 Cell Viability Assay. The settings on record: U-266, 48 hr, U266B1 cells, Celltiter-Glo, read-out: 48 hr U266 Viability Celltiter-Glo: Mean EC50. The method in brief: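 U266B1 myeloma cells treated with compound dilutions in DMSO/media for 48 h at 37 °C, 5% CO2. Viability read by CellTiter-Glo luminescence. Stereochemically undefined structures were tested as stereoisomer mixtures.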

Where [7] appears, read: 24 hr doxycycline induction, Gaussia luciferase signal.

Read-outs that look alike come from different tables or passages of the source. Some results are limits rather than exact numbers.

Regarding `CC(C)OC(C)(C)c1csc(NC(=O)c2cccn2Cc2ccc(C#N)cc2)n1` [Compound A80, 1-(4-cyanobenzyl)-N-(4-(2-isopropoxypropan-2-yl)thiazol-2-yl)-1H-pyrrole-2-carboxamide], the IC50 in experiment [1] (setting [7]) was 4.22 µM; in experiment [2] (setting [7]), above 25 µM; in experiment [3] (setting [7]), 7.88 µM; in experiment [4] (setting [7]) it was 3.53 µM. Besides, the concentration giving a half-maximal response (EC50) (in general, the concentration that produces a half-maximal response) was 21.9 µM in experiment [5] and above 25 µM in experiment [6].
Turning to `O=C(Nc1nc(/C=C/C2CCCOC2)cs1)c1cccn1Cc1ccncc1` (stereo not drawn) [Compound A154, 1-(pyridin-4-ylmethyl)-N-(4-(2-(tetrahydro-2H-pyran-3-yl)vinyl)thiazol-2-yl)-1H-pyrrole-2-carboxamide], the IC50 in experiment [1] (setting [7]) was determined as 0.694 µM; in experiment [2] (setting [7]), 11.5 µM; in experiment [3] (setting [7]), 2.6 µM; in experiment [4] (setting [7]), 5.42 µM. Besides, the EC50 in experiment [5] and in experiment [6] was above 25 µM throughout.
In the case of `CCc1nc(NC(=O)c2cccn2Cc2cccnc2)sc1C` [Compound A131, N-(4-ethyl-5-methylthiazol-2-yl)-1-(pyridin-3-ylmethyl)-1H-pyrrole-2-carboxamide], the IC50 in experiment [1] (setting [7]), in experiment [2] (setting [7]), in experiment [3] (setting [7]) and in experiment [4] (setting [7]) was above 25 µM in each case. The EC50 in experiment [5] and in experiment [6] was above 25 µM throughout.
On to `COc1ccccc1C#Cc1csc(NC(=O)c2cccn2Cc2ccncc2)n1` [Compound A141], for which the IC50 amounted to 0.277 µM in experiment [1] (setting [7]), 1.82 µM in experiment [2] (setting [7]), 0.651 µM in experiment [3] (setting [7]) and 1.58 µM in experiment [4] (setting [7]). In addition, the 50% effective concentration (EC50) in experiment [5] was 7.72 µM; in experiment [6], 13.1 µM.
For `CCc1nc(NC(=O)[C@@H]2CCCN2Cc2ccncc2)sc1C` [Compound B26, (S)-N-(4-ethyl-5-methylthiazol-2-yl)-1-(pyridin-4-ylmethyl)pyrrolidine-2-carboxamide], the IC50 in experiment [1] (24 hr, doxycycline-induced) was above 25 µM; in experiment [2] (24 hr, doxycycline-induced), above 25 µM; in experiment [3] (24 hr, doxycycline-induced), above 25 µM; in experiment [4] (24 hr, doxycycline-induced), above 25 µM. Besides, the concentration giving a half-maximal response (EC50) in experiment [5] and in experiment [6] was above 25 µM throughout.
Take `CC(C)OC(C)(C)c1csc(NC(=O)c2cc(C(=O)N(C)C)cn2Cc2ccncc2)n1` [Compound A111, N2-(4-(2-isopropoxypropan-2-yl)thiazol-2-yl)-N4,N4-dimethyl-1-(pyridin-4-ylmethyl)-1H-pyrrole-2,4-dicarboxamide]: the IC50 in experiment [1] (setting [7]), in experiment [2] (setting [7]), in experiment [3] (setting [7]) and in experiment [4] (setting [7]) was above 25 µM throughout. Further, the concentration giving a half-maximal response (EC50) in experiment [5] and in experiment [6] was above 25 µM throughout.
Turning to `O=C(Nc1nc(C2=CC(c3ccccc3)CCC2)cs1)c1cccn1Cc1ccncc1` (stereo not drawn) [Compound A294], the IC50 in experiment [1] (24 hr, doxycycline-induced) turned out to be 0.499 µM; in experiment [2] (24 hr, doxycycline-induced), 4.44 µM; in experiment [3] (24 hr, doxycycline-induced), 1.05 µM; in experiment [4] (24 hr, doxycycline-induced) it was 0.939 µM. The concentration for a half-maximal effect (EC50) in experiment [5] and in experiment [6] was above 25 µM each time.
Regarding `CC(C)OC(C)(C)c1csc(NC(=O)c2ccn(Cc3ccncc3)n2)n1` [Compound A100, N-(4-(2-isopropoxypropan-2-yl)thiazol-2-yl)-1-(pyridin-4-ylmethyl)-1H-pyrazole-3-carboxamide], the IC50 was 24.6 µM in experiment [1] (setting [7]), above 25 µM in experiment [2] (setting [7]), above 25 µM in experiment [3] (setting [7]) and above 25 µM in experiment [4] (setting [7]). Besides, the half-maximal effective concentration (EC50) in experiment [5] was 24.6 µM; in experiment [6] it was above 25 µM.
Regarding `CC(C)OC(C)(C)c1csc(NC(=O)C2CCCC(=O)N2Cc2ccncc2)n1` (stereo not drawn) [Compound A102, N-(4-(2-isopropoxypropan-2-yl)thiazol-2-yl)-6-oxo-1-(pyridin-4-ylmethyl)piperidine-2-carboxamide], the IC50 in experiment [1] (setting [7]), in experiment [2] (setting [7]), in experiment [3] (setting [7]) and in experiment [4] (setting [7]) was above 25 µM each time. For the same compound, the 50% effective concentration (EC50) in experiment [5] and in experiment [6] was above 25 µM throughout.
As for `O=C(Nc1nc(/C=C/c2cccc(Cl)c2)cs1)c1cccn1Cc1ccncc1` [Compound A209, N-(4-(3-chlorostyryl)thiazol-2-yl)-1-(pyridin-4-ylmethyl)-1H-pyrrole-2-carboxamide], the IC50 in experiment [1] (setting [7]) came to 0.232 µM; in experiment [2] (setting [7]), 4.74 µM; in experiment [3] (setting [7]), 0.578 µM; in experiment [4] (setting [7]), 1.24 µM. Further, the EC50 in experiment [5] and in experiment [6] was above 25 µM each time.
As to `NC(=O)c1ccc(/C=C/c2csc(NC(=O)c3cccn3Cc3ccncc3)n2)cc1` [Compound A231], the IC50 in experiment [1] (setting [7]) is 0.506 µM; in experiment [2] (setting [7]), 11.2 µM; in experiment [3] (setting [7]) it was above 25 µM; in experiment [4] (setting [7]), 7.07 µM. The results for the half-maximal effective concentration (EC50) in experiment [5] and in experiment [6] were 16.8 µM and above 25 µM, respectively.
